According to patent publication US7314644B2, “Extraction and purification method of active constituents from stem of Lonicera japonica thunb., its usage for anti-inflammatory and analgesic drug” (SK Chemicals Co., Ltd., priority 2002, dated 2008):

Tests used:
Type in all cases: in vivo
ICR mice [1] = assay: Acetic acid induced writhing test
SD rats = assay: Toxicity test (lethal dose, symptoms, weight, autopsy)
Description: The active constituents of honeysuckle stem and sweroside, in the amount of 1.0 g/kg, 1.5 g/kg and 2.0 g/kg, were administered through the tail veins of SD rats (body weight: 120 to 170 g, 5 male and female rats for each administration dose, SLC, Japan), respectively, which had been fasted for 4 hours. […] An autopsy was conducted to identify presence of any abnormalities of organs.
The lethal dose of the active constituents of honeysuckle stem and sweroside was both over 5.0 g/kg for oral administration (no dead rats observed), and over 2.0 g/kg for intravenous injection (no dead rats observed).

ICR mice [2] = assay: Arachidonic acid induced ear edema test
ICR mice [3] = assay: Croton oil induced ear edema test

Q: For `C=C[C@H]1[C@H](O[C@@H]2O[C@H](CO)[C@@H](O)[C@H](O)[C@H]2O)OC=C2C(=O)OCC[C@H]21` [Sweroside, sweroside], which “Rate of Inhibition (%)” value (ICR mice [1]; Table 12, tail vein, 0.1 mg/kg) is on record?
A: The value was 74.6%.

Q: What about the “Rate of Inhibition (%)” value (ICR mice [1]; Table 12, tail vein, 1 mg/kg) of the same molecule?
A: Its value is 86.4%.

Q: And the “Rate of Inhibition (%)” value (ICR mice [1]; Table 12, tail vein, 10 mg/kg)?
A: The value was 89.7%.

Q: What about the “Rate of Inhibition (%)” value (ICR mice [1]; Table 13, oral administration, 1 mg/kg) of the same molecule?
A: The value was 65.9%.

Q: What about the “Rate of Inhibition (%)” value (ICR mice [1]; Table 13, oral administration, 10 mg/kg) of the same molecule?
A: The value was 79.1%.

Q: And the “Rate of Inhibition (%)” value (ICR mice [1]; Table 13, oral administration, 100 mg/kg)?
A: Its value is 87.9%.

Q: What about the general symptoms (SD rats; 2.0 g/kg intravenously injected, restored soon) of the same molecule?
A: The general symptoms was “increased respiration counts and decreased activity for about 10 minutes”.

Q: And the autopsy result (SD rats; as is the case with the control groups)?
A: Its autopsy result is “no abnormalities”.

Q: What about the weight change (SD rats; observed for 2 weeks after administration) of the same molecule?
A: The weight change was “no change in weight”.

Q: What about the “Rate of Inhibition (%)” value (ICR mice [2]; Table 10, tail vein, 0.1 mg/kg) of the same molecule?
A: Its value is 48.3%.

Q: What about the “Rate of Inhibition (%)” value (ICR mice [2]; Table 10, tail vein, 1 mg/kg) of the same molecule?
A: The value was 55.1%.

Q: What about the “Rate of Inhibition (%)” value (ICR mice [2]; Table 10, tail vein, 10 mg/kg) of the same molecule?
A: The value was 69.1%.

Q: And the “Rate of Inhibition (%)” value (ICR mice [2]; Table 11, oral administration, 1 mg/kg)?
A: The value was 29.0%.

Q: And the “Rate of Inhibition (%)” value (ICR mice [2]; Table 11, oral administration, 10 mg/kg)?
A: Its value is 34.7%.

Q: And the “Rate of Inhibition (%)” value (ICR mice [2]; Table 11, oral administration, 100 mg/kg)?
A: Its value is 45.7%.

Q: What about the “Rate of Inhibition (%)” value (ICR mice [3]; Table 8, tail vein, 0.1 mg/kg) of the same molecule?
A: The value was 49.8%.

Q: What about the “Rate of Inhibition (%)” value (ICR mice [3]; Table 8, tail vein, 1 mg/kg) of the same molecule?
A: Its value is 56.2%.

Q: And the “Rate of Inhibition (%)” value (ICR mice [3]; Table 8, tail vein, 10 mg/kg)?
A: Its value is 65.7%.

Q: What about the “Rate of Inhibition (%)” value (ICR mice [3]; Table 9, oral administration, 1 mg/kg) of the same molecule?
A: Its value is 31.9%.

Q: And the “Rate of Inhibition (%)” value (ICR mice [3]; Table 9, oral administration, 10 mg/kg)?
A: The value was 43.1%.

Q: What about the “Rate of Inhibition (%)” value (ICR mice [3]; Table 9, oral administration, 100 mg/kg) of the same molecule?
A: The value was 57.8%.
